Marks after values point to notes of the source that are not given here.
Assays:
human Y1 receptor = molecular target: T1, human Y1 receptor (Homo sapiens, UniProt P25929); experiment: [125I]NPY receptor binding assay on SK-N-MC cells
T1 construct: host or cells: SK-N-MC cells (thawed, needle-disrupted cells)
T1 sequence (P25929 1-384): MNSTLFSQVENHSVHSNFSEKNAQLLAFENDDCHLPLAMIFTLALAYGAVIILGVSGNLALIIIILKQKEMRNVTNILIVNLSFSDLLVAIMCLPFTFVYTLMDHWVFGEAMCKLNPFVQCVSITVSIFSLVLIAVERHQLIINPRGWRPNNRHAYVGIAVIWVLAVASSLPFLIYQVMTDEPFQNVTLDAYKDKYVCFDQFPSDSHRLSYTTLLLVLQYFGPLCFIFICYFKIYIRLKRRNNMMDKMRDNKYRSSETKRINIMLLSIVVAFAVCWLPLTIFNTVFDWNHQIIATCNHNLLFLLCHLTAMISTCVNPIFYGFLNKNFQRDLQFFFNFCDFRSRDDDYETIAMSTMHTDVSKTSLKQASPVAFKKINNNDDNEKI
Description: (§1) SK-N-MC cells expressing the human Y1 receptor and SMS-MSN cells expressing the human Y2 receptor were obtained from the ATCC. They were cultured in 1:1 DMEM:Ham's F12 medium (ICN) containing 10% fetal calf serum, 0.1% non-essential amino acids, 0.2 mM glutamine, and 0.056% sodium bicarbonate. Confluent cells were harvested in scraping and pellets were stored at −80° C. On the day of use cells were thawed, washed once in binding buffer salts, passed several times through a 22 ga. needle, and the protein content was assayed using bicinchoninic acid (BCA kit, Pierce).
(§2) Just before use, plates were filtered and washed twice with 50 mM Tris-HCI pH 7.4/0.1% BSA. […] Binding was terminated by filtration. Filters were washed twice by rapid filtration with […] volumes of 50 mM Tris-HCI pH 7.4/0.1% BSA at 2° C., and counted on an LKB gamma counter. Specific binding was analysed by non-linear regression using a single-site fitting function (Graphpad Prism). Non-specific binding was defined by binding in the presence of 1 μM competitor.

Y1 receptors = molecular target: T2, Y1 receptors (Rattus norvegicus, UniProt P21555); experiment: Pressor response (increase in blood pressure) in anaesthetised rats (postjunctional activity); format: in vivo
T2 construct: from tissue; host or cells: anaesthetised Wistar rat, vasculature (in vivo)
T2 sequence (P21555 1-382): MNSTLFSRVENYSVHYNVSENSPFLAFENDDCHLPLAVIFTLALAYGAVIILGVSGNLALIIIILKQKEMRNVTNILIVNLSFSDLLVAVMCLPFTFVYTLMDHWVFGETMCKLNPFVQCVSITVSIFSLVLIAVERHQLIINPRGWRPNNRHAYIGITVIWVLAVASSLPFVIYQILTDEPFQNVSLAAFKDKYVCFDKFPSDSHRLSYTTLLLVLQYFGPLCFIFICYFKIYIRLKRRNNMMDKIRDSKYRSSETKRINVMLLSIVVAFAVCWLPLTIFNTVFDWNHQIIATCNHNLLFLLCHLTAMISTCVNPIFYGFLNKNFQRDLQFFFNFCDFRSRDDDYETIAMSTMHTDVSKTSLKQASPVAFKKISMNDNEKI
Description: Experiments were carried out on adult rats (Wistar) of both sexes (250-350 g), anaesthetised with sodium pentobarbitone (Nembutal, Boehringer-Ingleheim; 60 mg/kg, i.p.). The trachea was cannulated and the animal artificially ventilated. The femoral vein was cannulated for administration of peptides and further doses of anaesthetic. The left femoral artery was cannulated to record arterial pressure. Both vagus nerves were cut. […] The electrocardiogram was measured using needle electrodes and monitored on one channel of an osciloscope. Pulse interval (the period between successive beats of the heart) was recorded beat-by-beat by triggering from ECG. Pulse interval and arterial pressure were recorded on the pen recorder.
Dose-response curves were constructed from group data for all rats. Because of the long time-course of action of the peptides tested, not all peptides were given to each rat.
As an indication of prejunctional activity two parameters were measured; the maximum percent inhibition of the increase in pulse interval evoked by stimulation of the vagus nerve following injection of peptide and the time to half recovery of this effect (T50). For pressor action, an indicator of postjunctional activity, two parameters were also measured; the peak pressor response following injection of peptide and the duration of the increase in blood pressure. […] Results were analysed using a one-way ANOVA.

Y2-like receptors = molecular target: T3, Y2-like receptors (Rattus norvegicus, UniProt Q9ERC0); experiment: Inhibition of the vagally evoked increase in pulse interval in anaesthetised rats (prejunctional activity); format: in vivo; conditions: compared with Ac[Leu28,Leu31]NPY(24-36)
T3 construct: from tissue; host or cells: anaesthetised Wistar rat, cardiac vagal nerve endings (in vivo)
T3 sequence (Q9ERC0 1-381): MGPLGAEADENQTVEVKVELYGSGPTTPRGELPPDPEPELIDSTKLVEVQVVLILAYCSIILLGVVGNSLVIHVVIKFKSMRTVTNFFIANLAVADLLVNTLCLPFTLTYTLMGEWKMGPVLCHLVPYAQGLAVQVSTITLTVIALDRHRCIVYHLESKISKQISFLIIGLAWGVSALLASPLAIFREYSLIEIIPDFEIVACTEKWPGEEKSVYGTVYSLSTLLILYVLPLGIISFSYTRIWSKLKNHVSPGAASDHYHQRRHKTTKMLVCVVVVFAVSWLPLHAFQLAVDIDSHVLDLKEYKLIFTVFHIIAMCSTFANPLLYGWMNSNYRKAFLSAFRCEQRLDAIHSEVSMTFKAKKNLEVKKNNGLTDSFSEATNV
Description: Experiments were carried out on adult rats (Wistar) of both sexes (250-350 g), anaesthetised with sodium pentobarbitone (Nembutal, Boehringer-Ingleheim; 60 mg/kg, i.p.). The trachea was cannulated and the animal artificially ventilated. The femoral vein was cannulated for administration of peptides and further doses of anaesthetic. The left femoral artery was cannulated to record arterial pressure. Both vagus nerves were cut. […] The frequency was chosen to increase pulse interval by approximately 100 ms, a submaximal effect on this variable. The electrocardiogram was measured using needle electrodes and monitored on one channel of an osciloscope. Pulse interval (the period between successive beats of the heart) was recorded beat-by-beat by triggering from ECG. Pulse interval and arterial pressure were recorded on the pen recorder.
Dose-response curves were constructed from group data for all rats. Because of the long time-course of action of the peptides tested, not all peptides were given to each rat. Usually however, each rat received neuropeptide Y and two other peptides.
As an indication of prejunctional activity two parameters were measured; the maximum percent inhibition of the increase in pulse interval evoked by stimulation of the vagus nerve following injection of peptide and the time to half recovery of this effect (T50). For pressor action, an indicator of postjunctional activity, two parameters were also measured; the peak pressor response following injection of peptide and the duration of the increase in blood pressure. These indices give a reliable measure of the actions of a peptide at pre- and postjunctional sites, and have been used previously in this laboratory for this purpose; Potter et al., 1989; Potter et al., 1991). Results were analysed using a one-way ANOVA.

human Y2 receptor = molecular target: T4, human Y2 receptor (Homo sapiens, UniProt P49146); experiment: [125I]NPY receptor binding assay on SMS-MSN cells
T4 construct: host or cells: SMS-MSN cells (thawed, needle-disrupted cells)
T4 sequence (P49146 1-381): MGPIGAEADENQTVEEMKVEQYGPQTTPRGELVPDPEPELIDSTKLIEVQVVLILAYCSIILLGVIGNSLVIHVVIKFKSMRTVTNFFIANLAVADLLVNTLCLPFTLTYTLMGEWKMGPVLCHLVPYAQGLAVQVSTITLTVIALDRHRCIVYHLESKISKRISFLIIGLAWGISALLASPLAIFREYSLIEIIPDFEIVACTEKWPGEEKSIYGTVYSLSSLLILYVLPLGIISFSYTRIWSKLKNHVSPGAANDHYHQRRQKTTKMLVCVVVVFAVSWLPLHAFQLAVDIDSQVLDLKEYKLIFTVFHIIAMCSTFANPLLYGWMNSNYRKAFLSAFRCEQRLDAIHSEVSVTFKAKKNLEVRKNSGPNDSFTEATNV
Description: as §1, §2

[1] = tested on: Y2-like receptors mediating inhibition of transmitter release from renal nerves; experiment: Increase of renal vascular resistance elicited by renal sympathetic nerve stimulation; format: in vivo, dog; conditions: 40 nmol dose; FIG. 1
Description: Experiments were carried out in six, adult, mongrel dogs of both sexes weighing between 18 and 26 kg. The dogs were anaesthetised with a bolus injection of sodium pentobarbitone (36 mg/kg intravenous; Nembutal, Boehringer Ingelheim) and then maintained on an infusion (2-3 mg/kg/hr). The animal was artificially ventilated, maintained at constant temperature and blood pressure and heart rate were monitored continuously.
The left kidney was exposed retroperitoneally and renal arterial blood flow was monitored continuously (Pernow & Lundberg, 1989a), using a transonic flow probe (Transonic System Inc., N.Y.). Postganglionic nerves to the kidney were isolated, cut and placed over bipolar, platinum electrodes for stimulation (1-10 Hz, 5-10 V, 1-5 msec).
The renal nerve was stimulated over a range of frequencies (1-10 Hz) for 30 secs and a frequency-response curve constructed. The responses were measured at the peak change in flow. […] Responses were reported as change in vascular resistance.

[2] = molecular target: T5, neuropeptide Y Y2 receptor subtype (Homo sapiens, UniProt P49146); conditions: SMS-KAN cells; cited from earlier work
T5 construct: host or cells: SMS-KAN human neuroblastoma cells
T5 sequence (P49146 1-381): T4 sequence (P49146 1-381)

[3] = molecular target: T6, human neuropeptide Y Y1 receptor (Homo sapiens, UniProt P25929); conditions: fibroblast cells; cited from earlier work
T6 sequence (P25929 1-384): T1 sequence (P25929 1-384)

[4] = molecular target: T7, neuropeptide Y Y1 receptor type (Homo sapiens, UniProt P25929); conditions: SK-N-MC cells; cited from earlier work
T7 construct: host or cells: SK-N-MC human cells
T7 sequence (P25929 1-384): T1 sequence (P25929 1-384)

[5] = anaesthetised rats, †: No response to 10 nmole dose

Substance | Increase in BP (rel to NPY) (Y1 receptors; [5]) | also measured
Ac-ARAALNAATRQRY-NH2 [Ac[A24,26,27,30,31,L28]NPY24-36] | 0† | IC50 (human Y1 receptor): > 1000 nM; Inhibition of the effect of vagal stimulation on heart rate, in words (Y2-like receptors): enhanced in vivo activity at Y2 receptors
Ac-ARHALNLLTRQRY-NH2 [Ac[A24,A27,L28,L31]NPY24-36] | 0† | Direct effect on the circulation (Y1 receptors; 40 nmol dose): no direct effect on the circulation; Affinity for NPY Y2 receptors, in words (human Y2 receptor): high affinity for NPY Y2 receptors; Inhibition of the increase of renal vascular resistance elicited by renal nerve stimulation [1]: almost completely inhibited the effect of nerve stimulation; Inhibition of the effect of vagal stimulation on heart rate, in words (Y2-like receptors): enhanced in vivo activity at Y2 receptors
Ac-ARHYLNLLTRQRY-NH2 [Ac[A24,L28,L31]NPY24-36] | 0† | IC50 (human Y2 receptor): 19.3 nM
Ac-LAHYLNLLTRQRY-NH2 [Ac[A25,L28,L31]NPY24-36] | 0† | 
Ac-LAHYRNLLTRQRY-NH2 [Ac[A25,R28,L31]NPY24-36] | 0† | 
Ac-LRAYLNLLTRQRY-NH2 [Ac[A26,L28,L31]NPY24-36] | 0† | 
Ac-LRHALNLLTRQRY-NH2 [Ac[A27,L28,L31]NPY24-36] | 0† | 
Ac-LRHYANLLTRQRY-NH2 [Ac[A28,L31]NPY24-36] | 0† | 
Ac-LRHYLALLTRQRY-NH2 [Ac[L28,A29,L31]NPY24-36] | 0† | 
Ac-LRHYLNALTRQRY-NH2 [Ac[L28,A30,L31]NPY24-36] | 0† | 
Ac-LRHYLNLATRQRY-NH2 [Ac[L28,A31]NPY24-36] | 0† | 
Ac-LRHYLNLLARQRY-NH2 [Ac[L28,L31,A32]NPY24-36] | 0† | 
Ac-LRHYLNLLTRQRY-NH2 [Ac[L28,L31]NPY24-36] [listing 1 of 2 here] |  | Affinity for the neuropeptide Y Y2 receptor subtype, in words [2]: significant affinity; Stimulation of the Y1 receptor to induce an increase in cytosolic calcium [3]: did not stimulate; Affinity for the neuropeptide Y Y1 receptor type, in words [4]: no affinity; Increase in BP (rel to NPY) (Y1 receptors; rat, in vivo): 0†
Ac-LRHYLNLLTRQRY-NH2 [Ac[L28,L31]NPY24-36] [listing 2 of 2 here] |  | IC50 (human Y1 receptor): > 100 nM
AcNPY24-36 [reference compound] | 0† | 
Ac[A26,27,L28,31]NPY24-36 (Ac-LRAALNLLTRQRY-NH2; ends and bridges not checked) |  | Inhibition of the effect of vagal stimulation on heart rate, in words (Y2-like receptors): enhanced in vivo activity at Y2 receptors
Ac[L28,I30]NPY24-36 (Ac-LRHYLNIITRQRY-NH2; ends and bridges not checked; UniProt P01303 52-64, looked up, variant I28L L30I) | 0† | 

— patent US6696409B1 (priority 1996, dated 2004)
